Measured values: PubChem BioAssay (NCI)
Several values for one entry are separate records, joined by “and”; a condition that tells them apart may be missing. Equal values may be shown once.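 Tested at 5 concentrations; 48 h exposure; 96-well plates; endpoints linearly interpolated, else capped at highest concentration. GI50 marks 50% less growth. At the TGI there is no net growth.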

Assays:
Assay in all cases: NCI tumour cell line growth inhibition, 48 h
[1] = test system: CCRF-CEM leukemia
[2] = test system: PC-3 prostate
[3] = test system: ACHN renal
[4] = test system: K-562 leukemia
[5] = test system: NCI-H23 lung
[6] = test system: OVCAR-4 ovarian
[7] = test system: SK-MEL-5 melanoma
[8] = test system: OVCAR-3 ovarian
[9] = test system: DLD-1 colon
[10] = test system: DMS 273 small cell lung

SMILES: O=C(/C=C/c1ccco1)Nc1ncc(Cc2cccc(C(F)(F)F)c2)s1
- GI50 [1]: 0.0682 µM
- TGI [1]: > 47.8 µM
- GI50 [2]: 0.055 µM
- TGI [2]: > 44.3 µM
- GI50 [3]: 0.0647 µM
- TGI [3]: 3.66 µM
- GI50 [4]: 0.0361 µM
- TGI [4]: > 33.8 µM
- GI50 [5]: 0.208 µM
- TGI [5]: > 39.7 µM
- GI50 [6]: 0.495 µM
- TGI [6]: 4.03 µM
- GI50 [7]: 0.0512 µM
- TGI [7]: 1.81 µM
- GI50 [8]: 0.0386 µM
- TGI [8]: 0.45 µM

SMILES: CCC[CH2][Sn]1([CH2]CCC)[O]C(=O)CN=C(C)c2ccccc2[O]1
- GI50 [9]: 1.94 µM
- TGI [9]: > 100 µM
- GI50 [3]: 0.881 µM
- TGI [3]: 2.13 µM
- GI50 [4]: 0.289 µM
- TGI [4]: 4.74 µM
- GI50 [5]: 0.429 µM
- TGI [5]: 1.78 µM
- GI50 [6]: 1.73 µM
- TGI [6]: 3.62 µM
- GI50 [7]: 2.55 µM
- TGI [7]: > 100 µM
- GI50 [10]: 1.39 µM
- TGI [10]: 2.74 µM
- GI50 [8]: 1.4 µM
- TGI [8]: 2.73 µM

SMILES: NC(CP(=O)(O)O)C(=O)O (stereo not drawn)
- TGI [1]: > 100 µM
- TGI [2]: > 100 µM
- TGI [3]: > 100 µM
- TGI [4]: > 100 µM
- TGI [5]: > 100 µM
- TGI [6]: > 100 µM
- TGI [7]: > 100 µM
- TGI [8]: > 100 µM

SMILES: O=C(CC(=O)N1N=C(n2ccc3ccccc32)CC1c1ccccc1)Nc1ccc(Cl)cc1 (stereo not drawn)
- TGI [1]: > 100 µM
- TGI [9]: > 100 µM
- TGI [3]: > 100 µM
- TGI [4]: > 100 µM
- TGI [5]: > 100 µM
- TGI [6]: > 100 µM
- TGI [10]: > 100 µM
- TGI [8]: > 100 µM

SMILES: CCOC(=O)C1=C(C)NC(C)=C(C(=O)OCCNC(=O)c2ccc(N=[N+]=[N-])cc2)C1c1ccccc1C(F)(F)F (stereo not drawn)
- TGI [1]: 21.5 µM
- TGI [2]: 21.5 µM
- TGI [3]: 21.5 µM
- TGI [4]: 21.5 µM
- TGI [5]: 21.5 µM
- TGI [6]: 21.5 µM
- TGI [7]: 12.7 µM
- TGI [8]: 21.5 µM

SMILES: CCSc1nc(NC(C)c2ccccc2)c2cnn(CO)c2n1 (stereo not drawn)
- GI50 [1]: > 100 µM
- TGI [1]: > 100 µM
- GI50 [2]: 38.5 µM
- TGI [2]: > 100 µM
- GI50 [3]: 76 µM
- TGI [3]: > 100 µM
- GI50 [4]: 29.2 µM
- TGI [4]: > 100 µM
- GI50 [5]: 18.4 µM
- TGI [5]: > 100 µM
- GI50 [6]: 86.4 µM
- TGI [6]: > 100 µM
- GI50 [7]: 3.18 µM
- TGI [7]: 25.9 µM
- GI50 [8]: 64.7 µM
- TGI [8]: > 100 µM

SMILES: COc1ccc(/C(=C/c2ccc3ccccc3c2)c2nn[nH]n2)cc1OC
- GI50 [1]: 3.33 µM
- TGI [1]: > 100 µM
- GI50 [2]: 2.36 µM
- TGI [2]: > 100 µM
- GI50 [3]: 11.3 µM
- TGI [3]: > 100 µM
- GI50 [4]: 0.678 µM
- TGI [4]: > 100 µM
- GI50 [5]: 5.29 µM
- TGI [5]: > 100 µM
- GI50 [6]: 7.78 µM
- TGI [6]: > 100 µM
- GI50 [7]: 4.68 µM
- TGI [7]: 23.8 µM
- GI50 [8]: 1.69 µM
- TGI [8]: 7.87 µM

SMILES: Nc1nc(=S)c2ncn(C3OC(CO)C(O)C3O)c2[nH]1 (stereo not drawn)
- GI50 [1]: 0.318 µM
- TGI [1]: > 68.2 µM
- GI50 [2]: 2.34 µM
- TGI [2]: > 100 µM
- GI50 [3]: 0.944 µM
- TGI [3]: 42.6 µM
- GI50 [4]: 0.49 µM
- TGI [4]: > 61.1 µM
- GI50 [5]: 0.776 µM
- TGI [5]: > 100 µM
- GI50 [6]: 1.86 µM
- TGI [6]: > 100 µM
- GI50 [7]: 2.41 µM
- TGI [7]: 10.8 µM
- GI50 [8]: 0.851 µM

SMILES: O=C(Nc1ccc(Oc2ccc(NC(=O)Nc3ccccc3Cl)cc2)cc1)Nc1ccccc1Cl
- GI50 [1]: 4.72 µM
- TGI [1]: 28.8 µM
- GI50 [2]: 2.11 µM
- GI50 [3]: > 22.2 µM
- TGI [3]: > 100 µM
- GI50 [4]: 2.63 µM
- TGI [4]: > 40.1 µM
- GI50 [5]: 3.61 µM
- TGI [5]: 18.5 µM
- GI50 [6]: 2.71 µM
- TGI [6]: 24.4 µM
- TGI [7]: > 100 µM
- GI50 [8]: 11.3 µM
- TGI [8]: > 55 µM

SMILES: CN(C)c1ccc(/C=C(\C#N)c2ccccc2)cc1
- GI50 [1]: 0.332 µM and 0.553 µM and 0.595 µM
- TGI [1]: 13.4 µM and > 100 µM
- GI50 [2]: 0.272 µM and 1.92 µM and 0.956 µM
- TGI [2]: > 100 µM
- GI50 [3]: 0.901 µM and 0.688 µM and 1.37 µM
- TGI [3]: > 100 µM
- GI50 [4]: 0.194 µM and 0.337 µM and 0.35 µM
- TGI [4]: > 100 µM
- GI50 [5]: 0.957 µM and 1.33 µM and 0.76 µM
- TGI [5]: > 100 µM
- GI50 [6]: 3.18 µM and 2.42 µM and 1.75 µM
- TGI [6]: > 100 µM
- GI50 [7]: 0.398 µM and 0.45 µM and 0.345 µM
- TGI [7]: 26.3 µM and 18 µM and 17.8 µM
- GI50 [8]: 0.272 µM and 0.398 µM and 0.365 µM
- TGI [8]: 1.22 µM and 3.23 µM and 4.25 µM

SMILES: COc1ccc(C2CC(c3ccccc3)=NN2C(=O)c2cc(OC)c(OC)c(OC)c2)cc1O (stereo not drawn)
- GI50 [1]: 0.473 µM
- TGI [1]: > 31.9 µM
- GI50 [2]: 0.369 µM
- TGI [2]: > 52.8 µM
- GI50 [3]: 0.816 µM
- TGI [3]: 58.1 µM
- GI50 [4]: 0.297 µM
- TGI [4]: 27.1 µM
- GI50 [5]: 0.743 µM
- TGI [5]: > 65.8 µM
- GI50 [6]: 0.596 µM
- TGI [6]: > 100 µM
- GI50 [7]: 0.338 µM
- TGI [7]: 2.17 µM
- GI50 [8]: 0.326 µM
- TGI [8]: 3.99 µM

SMILES: COC(=O)C(=NNc1ccccc1[N+](=O)[O-])C(=O)OC
- TGI [1]: > 100 µM
- TGI [3]: > 100 µM
- TGI [4]: > 100 µM
- TGI [5]: > 100 µM
- TGI [6]: > 100 µM
- TGI [10]: > 100 µM

SMILES: COC(=O)[C@H](Cc1ccccc1)NNC(=O)c1csc([C@@H](C[C@H](C(C)C)N(C)C(=O)[C@@H](NC(=O)[C@H]2CCCCN2C)C2CC2)OC(C)=O)n1
- GI50 [1]: 0.00377 µM and 0.0025 µM and 0.0213 µM
- TGI [1]: 25 µM and > 100 µM
- TGI [2]: 25 µM and > 100 µM
- TGI [3]: 25 µM and > 100 µM
- GI50 [4]: 0.00302 µM and 0.0025 µM and 0.0243 µM
- TGI [4]: 25 µM and > 100 µM
- TGI [5]: 25 µM and > 100 µM
- TGI [6]: 25 µM and > 100 µM
- TGI [7]: 0.51 µM and 2.26 µM
- GI50 [8]: 0.00213 µM

SMILES: O=C[C@]12CC=C3OC4OC5(CCCCC5)OC4[C@H]3[C@H]1C(=O)C=CC2=O (stereo partly drawn)
- TGI [1]: 9.3 µM
- TGI [9]: 38.9 µM
- TGI [3]: 58.5 µM
- TGI [6]: 31.7 µM
- TGI [7]: 35.5 µM
- TGI [10]: > 100 µM

SMILES: O=C(/C=C\c1cc(Br)ccc1O)/C=C/c1cc(Br)ccc1O
- GI50 [1]: 0.282 µM
- TGI [1]: 10.5 µM
- GI50 [2]: 0.63 µM
- TGI [2]: 3.08 µM
- GI50 [3]: 0.661 µM
- TGI [3]: 2.05 µM
- GI50 [4]: 0.445 µM
- TGI [4]: 8.12 µM
- GI50 [5]: 0.87 µM
- TGI [5]: 2.68 µM
- GI50 [6]: 1.21 µM
- TGI [6]: 6.87 µM
- GI50 [7]: 0.426 µM
- TGI [7]: 1.66 µM
- GI50 [8]: 0.351 µM
- TGI [8]: 1.13 µM

SMILES: [N-]=[N+]=NCCCn1c2c(c3ccc([N+](=O)[O-])cc3c1=O)C(=O)c1cc(I)ccc1-2
- GI50 [1]: 0.416 µM
- TGI [1]: > 100 µM
- GI50 [2]: 11 µM
- TGI [2]: > 100 µM
- GI50 [3]: 2.25 µM
- TGI [3]: 7.5 µM
- GI50 [4]: 5.15 µM
- TGI [4]: > 100 µM
- GI50 [5]: 5.41 µM
- TGI [5]: 55.7 µM
- GI50 [6]: 60 µM
- TGI [6]: > 100 µM
- GI50 [7]: 3.77 µM
- TGI [7]: 15.5 µM
- GI50 [8]: 18.3 µM
- TGI [8]: > 100 µM
